Reference: US20100311714A1, “1H-IMIDAZO[4,5-c]QUINOLINONE COMPOUNDS” (priority 2009, published 2010)
Where two headings read alike, the source gives them in different places.

Assays:
[1] = tested on: PKB Ser473 phosphorylation in Rat1-myr-HA-p110 delta cells; assay: Reverse protein array, PKB Ser473 phosphorylation in Rat1-myr-HA-p110 delta cells; assay type: cell-based; details: Rattus norvegicus, 0.5 h, 30 minutes compound incubation, read-out: p-PKB/IC50_delta
[2] = tested on: S6 Ribosomal Protein phosphorylation Ser235/236 in TSC1 null mouse embryo fibroblast (MEF) cells; assay: Reverse protein array, S6 Ribosomal Protein phosphorylation in TSC1 null MEF cells; assay type: cell-based; details: 1 h, TSC1-/- MEFs, 60 minutes
In short: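 Phospho-S6 (Ser235/236) was quantified by reverse protein array of cell lysates with a phospho-specific primary antibody. […]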

Row | Structure (SMILES) | IC50 [1] | IC50 ([2]; read-out: p-S6 IC50) | IC50 ([2]; read-out: p-S6)
1 | Cc1nc(F)ccc1-n1c(=O)n(C)c2cnc3ccc(-c4cnc(N)c(CO)c4)cc3c21 [Example 7.17, 8-(6-Amino-5-hydroxymethyl-pyridin-3-yl)-1-(6-fluoro-2-methyl-pyridin-3-yl)-3-methyl-1,3-dihydro-imidazo[4,5-c]quinolin-2-one] | 119 nM | 5 nM | 
2 | CNc1cc(-c2ccc3ncc4c(c3c2)n(-c2ccc(C(F)(F)F)nc2C)c(=O)n4C)cnc1CO [Example 33.2, 8-(6-Hydroxymethyl-5-methylamino-pyridin-3-yl)-3-methyl-1-(2-methyl-6-trifluoromethyl-pyridin-3-yl)-1,3-dihydro-imidazo[4,5-c]quinolin-2-one] | 28.2 nM | 2 nM | 
3 | CCOc1ccc(-c2ccc3ncc4c(c3c2)n(-c2ccc(N(C)CCOC)nc2C)c(=O)n4C)cn1 [Example 15.3, 8-(6-Ethoxy-pyridin-3-yl)-1-{6-[(2-methoxy-ethyl)-methyl-amino]-2-methyl-pyridin-3-yl}-3-methyl-1,3-dihydro-imidazo[4,5-c]quinolin-2-one] | 212 nM | 130 nM | 
4 | COc1ccc(-c2ccc3ncc4c(c3c2)n(-c2cccnc2OC)c(=O)n4C)cn1 [Example 1.1, 1-(2-Methoxy-pyridin-3-yl)-8-(6-methoxy-pyridin-3-yl)-3-methyl-1,3-dihydro-imidazo[4,5-c]quinolin-2-one] | 53.3 nM |  | 24.5 nM
5 | Cc1ccc(-n2c(=O)n(C)c3cnc4ccc(-c5cnc(N(C)C)nc5)cc4c32)c(C)n1 [Example 14.3, 8-(2-Dimethylamino-pyrimidin-5-yl)-1-(2,6-dimethyl-pyridin-3-yl)-3-methyl-1,3-dihydro-imidazo[4,5-c]quinolin-2-one] | 122 nM | 10 nM | 
6 | CNc1ccc(-c2ccc3ncc4c(c3c2)n(-c2ccc(NC(=O)COC)nc2C)c(=O)n4C)cn1 [Example 20.4, 2-Methoxy-N-{6-methyl-5-[3-methyl-8-(6-methylamino-pyridin-3-yl)-2-oxo-2,3-dihydro-imidazo[4,5-c]quinolin-1-yl]-pyridin-2-yl}-acetamide] | 197 nM | 63 nM | 
7 | CNc1cc(-c2ccc3ncc4c(c3c2)n(-c2ccc(F)nc2C)c(=O)n4C)cnc1CO [Example 7.11, 1-(6-Fluoro-2-methyl-pyridin-3-yl)-8-(6-hydroxymethyl-5-methylamino-pyridin-3-yl)-3-methyl-1,3-dihydro-imidazo[4,5-c]quinolin-2-one] | 17.1 nM | 7 nM | 
8 | CNc1ccc(-c2ccc3ncc4c(c3c2)n(-c2ccc(N(C)CCOC)nc2C)c(=O)n4C)cn1 [Example 15.4, 1-{6-[(2-Methoxy-ethyl)-methyl-amino]-2-methyl-pyridin-3-yl}-3-methyl-8-(6-methylamino-pyridin-3-yl)-1,3-dihydro-imidazo[4,5-c]quinolin-2-one] | 31.3 nM | 3 nM | 
9 | COCC(=O)Nc1ccc(-n2c(=O)n(C)c3cnc4ccc(-c5cncc(N)c5)cc4c32)c(C)n1 [Example 20.1, N-{5-[8-(5-Amino-pyridin-3-yl)-3-methyl-2-oxo-2,3-dihydro-imidazo[4,5-c]quinolin-1-yl]-6-methyl-pyridin-2-yl}-2-methoxy-acetamide] | 194 nM | 32 nM | 
10 | CCNc1cc(-c2ccc3ncc4c(c3c2)n(-c2ccc(F)nc2C)c(=O)n4C)cnc1CO [Example 7.9, 8-(5-Ethylamino-6-hydroxymethyl-pyridin-3-yl)-1-(6-fluoro-2-methyl-pyridin-3-yl)-3-methyl-1,3-dihydro-imidazo[4,5-c]quinolin-2-one] | 41.5 nM | 5 nM | 
11 | COc1ncccc1-n1c(=O)n(C)c2cnc3ccc(-c4cnc(N)c(C(F)(F)F)c4)cc3c21 [Example 1.3, 8-(6-Amino-5-trifluoromethyl-pyridin-3-yl)-1-(2-methoxy-pyridin-3-yl)-3-methyl-1,3-dihydro-imidazo[4,5-c]quinolin-2-one] | 15.5 nM |  | 1.52 nM
